Results: patent US20090104211A1, “Treatment of atherosclerosis” (AFFIRIS Forschungs-und Entwicklungs GmbH, priority 2004, published 2009)

Tested on: anti-CETP monoclonal antibody (detects the CETP-derived amino acid sequence FGFPEHLLVDFLQSLS)
Experiment: ELISA screening of peptide libraries with anti-CETP monoclonal antibody for mimotope identification
Assay type: binding
Conditions: 7 mer / 8 mer peptide libraries
Description: The problem of the anti-CETP vaccine approach discussed above is that the vaccine formulation comprises a self peptide and therefore must break natural tolerance against self antigens. The invention describes a CETP mimotope that can be used for vaccination: The mimotope shall induce the production of antibodies against CETP. […] Thus, the induction of an anti-CETP antibody response is greatly facilitated. The mimotope is identified with a monoclonal antibody (mAb) and (commercially available) peptide libraries (e.g. according to 16). An anti-CETP monoclonal antibody is used that neutralizes CETP activity (17). This mAb detects a sequence within the C-terminal 26 amino acids of CETP necessary for neutral lipid transfer activity (18).
One monoclonal antibody used for the mimotope identification detects the CETP-derived amino acid sequence […] (=original epitope).
The mimotope has a preferred length of 5 to 15 amino acids. Two different libraries are used in ELISA assays to define mimotope sequences.
Library 1: This 7 mer library contains peptides with the following sequences (amino acid positions 1 to 7):
Library 2: This 8 mer library contains peptides with the following sequences (amino acid positions 1 to 8):
Position 1: all natural aa except of C (19 possibilities) Position 2: all natural aa except of C (19 possibilities) Position 3: all natural aa except of C (19 possibilities) Position 4: all natural aa except of C (19 possibilities) Position 5: all natural aa except of C (19 possibilities) Position 6: all natural aa except of C (19 possibilities) Position 7: all natural aa except of C (19 possibilities) Position 8: all natural aa except of C (19 possibilities)

With AAQKDKVP [8 mer peptide, CETP mimotope] as the substance, how does the “mimotope detected by monoclonal antibody” value read?
Its value is “detected by a monoclonal antibody”.

Which “mimotope detected by monoclonal antibody” value does the source give for ALKDKLP [7 mer peptide, CETP mimotope] here?
The value was “detected by a monoclonal antibody”.

Which “mimotope detected by monoclonal antibody” value does the source give for ALKDKVP [7 mer peptide, CETP mimotope] here?
The value was “detected by a monoclonal antibody”.

With ALKGKIP [7 mer peptide, CETP mimotope] as the substance, how does the “mimotope detected by monoclonal antibody” value read?
Its value is “detected by a monoclonal antibody”.

For ALKHKIP [7 mer peptide, CETP mimotope], which “mimotope detected by monoclonal antibody” value is on record?
The value was “detected by a monoclonal antibody”.

ALKHKVP [7 mer peptide, CETP mimotope] was tested. Which “mimotope detected by monoclonal antibody” value did it give?
Its value is “detected by a monoclonal antibody”.

ALKNKIP [7 mer peptide, CETP mimotope] was tested. Which “mimotope detected by monoclonal antibody” value did it give?
The value was “detected by a monoclonal antibody”.

Which “mimotope detected by monoclonal antibody” value does the source give for ALKNKLP [7 mer peptide, CETP mimotope] here?
The value was “detected by a monoclonal antibody”.

ALKSKIP [7 mer peptide, CETP mimotope] was tested. Which “mimotope detected by monoclonal antibody” value did it give?
Its value is “detected by a monoclonal antibody”.

ALKYKLP [7 mer peptide, CETP mimotope] was tested. Which “mimotope detected by monoclonal antibody” value did it give?
Its value is “detected by a monoclonal antibody”.

For AVKGKLP [7 mer peptide, CETP mimotope], which “mimotope detected by monoclonal antibody” value is on record?
The value was “detected by a monoclonal antibody”.
